Data: PMC5636120, “Biochemical characterization of recombinant influenza A polymerase heterotrimer complex: Polymerase activity and mechanisms of action of nucleotide analogs” (PLoS ONE, 2017)
Where “and” joins values, the source holds several entries; their conditions need not be identical. Equal values may be shown once. Read-outs that look alike come from different tables or passages of the source.

Assays:
[1] = system: influenza A (A/Hong Kong/8/68); experiment: Antiviral activity (virus-induced cytopathic effect, CellTiterGlo) in infected MDCK cells; format: cell-based, Influenza A virus A/Hong Kong/8/68; details: for EC50: MDCK cells infected with Influenza A/HK/68, MOI 0.005, five day incubation, nucleoside form
Experimental: MDCK cells were seeded in 96-well plates at a density of 1 × 10^4 cells per well in 100 μL of MEM medium supplemented with 10% FBS. Medium was removed the next day and the cells were washed twice with 100 μL MEM medium supplemented with 0.125% (w/v) BSA (MEM-BSA). Serially diluted compounds were added to cells in 150 μL MEM-BSA and cells were infected with influenza A (A/Hong Kong/8/68, Advanced Biotechnologies Inc.) at MOI 0.005 in 50 μL of MEM-BSA medium supplemented with 8 μg/mL trypsin (Worthington, Lakewood, NJ). After five day incubation at 37°C, virus-induced cytopathic effect was determined by adding CellTiterGlo viability reagents (Promega, Madison, WI) and the luminescence signal was measured using Perkin Elmer’s Envision MultiLabel plate reader (Santa Clara, CA). The cytotoxicity of compounds in MDCK cells was determined in replicate plates with the same setup as used in the antiviral assay, except no virus was added to the cell culture. EC50 and CC50 values were calculated by non-linear regression analysis using GraphPad Prism (La Jolla, CA) and four parameter logistic sigmoidal dose-response (variable slope) equations.

[2] = in vitro; details: dog
[3] = target: recombinant influenza polymerase trimer (RdRp) (Influenza A virus, UniProt P03431); experiment: Mechanism of action, gel-based incorporation assay with miniHA template and capped 33P-m7G167 primer; format: biochemical, Influenza A virus H1N1 strain A/PR/8; details: 500 μM analog in place of GTP, 500 μM each CTP, UTP, ATP, miniHA template
Chain of recombinant influenza polymerase trimer (RdRp) (P03431 whole entry, looked up): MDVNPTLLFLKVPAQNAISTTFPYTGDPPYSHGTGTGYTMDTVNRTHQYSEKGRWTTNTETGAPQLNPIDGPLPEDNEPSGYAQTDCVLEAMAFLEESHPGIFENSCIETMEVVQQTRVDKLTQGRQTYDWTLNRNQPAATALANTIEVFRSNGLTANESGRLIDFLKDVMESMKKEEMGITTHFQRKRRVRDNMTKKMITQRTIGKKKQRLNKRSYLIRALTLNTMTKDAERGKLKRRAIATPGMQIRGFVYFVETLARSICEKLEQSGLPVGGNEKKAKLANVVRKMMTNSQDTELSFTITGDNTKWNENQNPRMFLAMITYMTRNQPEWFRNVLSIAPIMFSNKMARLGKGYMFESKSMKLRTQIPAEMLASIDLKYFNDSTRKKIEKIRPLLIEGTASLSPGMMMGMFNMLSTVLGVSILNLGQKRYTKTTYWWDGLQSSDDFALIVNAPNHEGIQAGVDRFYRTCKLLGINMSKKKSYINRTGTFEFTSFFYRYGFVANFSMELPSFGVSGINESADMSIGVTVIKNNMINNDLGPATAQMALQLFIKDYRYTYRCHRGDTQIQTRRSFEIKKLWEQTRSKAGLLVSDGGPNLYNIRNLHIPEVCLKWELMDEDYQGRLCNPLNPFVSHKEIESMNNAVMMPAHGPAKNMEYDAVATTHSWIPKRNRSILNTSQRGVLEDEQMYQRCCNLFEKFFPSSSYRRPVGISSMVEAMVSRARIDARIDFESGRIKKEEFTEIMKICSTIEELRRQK
Experimental: (§1) The PA, PB1 and PB2 genes of Influenza A virus RNA polymerase were amplified by reverse-transcription and PCR from H1N1 strain A/PR/8. The 3x FLAG tag was added to the N-terminal full-length PA and cloned into pFastBac1 vector (Life Technologies, Carlsbad, CA). Full-length PB1 and PB2 genes were cloned into pFastBac Dual vector (Life Technologies) as described previously. Recombinant baculovirus was generated for PA and PB1/PB2 using Sf9 cells and was used to co-infect Trichopulsia ni cells (Hi5) at 1.5 x 10^6 cells/ml in ESF-921 medium (Expression Systems, David, CA). Purification and biochemical characterization of the polymerase heterotrimer was described previously. The purified polymerase complex was stored at -80°C prior use.
Recombinant influenza polymerase trimer (80 ng/μL) was incubated with 595 nM ^33P-m^7G^167 and 1.6 μM miniHA template in buffer containing 50 mM HEPES (pH 7.8), 2 mM DTT, 5 mM magnesium acetate, 0.2 U/mL RNasin for 60 minutes at 37°C. After the endonuclease cleavage of ^33P-m^7G^167 was completed, 20 μM of endonuclease inhibitor 4-(1,4-bis(4-chlorobenzyl)piperidin-4-yl)-2,4-dioxobutanoic acid was added to the reaction mixture. The polymerase reactions were initiated by adding nucleotide analogs and three other natural NTPs (all at final concentrations of 500 μM) and 10 μCi α-^33P-ATP. Reactions were incubated at 37°C for 30 minutes and quenched with equal volumes of gel loading dye containing 90% formamide, 100 mM EDTA, 0.1% (w/v) bromphenol blue and xylene cyanol. Reactions were analyzed by electrophoresis (25% polyacrylamide, 8 M urea). The dried gels were exposed to phosphorimager screen and visualized using the Typhoon Trio and ImageQuant Software (GE, Piscataway, NJ.)

[4] = target: concentrated cRNP with endogenous viral template (Influenza A virus, UniProt P03431); details: 500 μM natural NTPs and/or analogs, 60 minutes
Chain of concentrated cRNP with endogenous viral template (P03431 whole entry, looked up): as above

[5] = target: T1, recombinant influenza RdRp (PA/PB1/PB2 heterotrimer) (Influenza A virus, UniProt P03431); experiment: Apparent binding affinity (Kapp), single nucleotide incorporation; format: biochemical, Influenza A virus H1N1 strain A/PR/8; details: for Kapp: SNI-G template, ApG primer, 37°C, 35 minutes, concentration converting half of 9-mer to 10-14-mer; for Selectivity factor, Kapp(analog):Kapp(GTP): natural GTP over analog
T1 sequence (P03431 whole entry, looked up, one chain of several): as the sequence (P03431 whole entry, looked up) above
Experimental: as §1
The apparent binding affinity Kapp was determined for GTP and T-1106-TP as described by Jin et al. 250 nM recombinant polymerase trimer was pre-incubated with 2.5 μM SNI-G template, 1 μM SNI-Pro promoter, and 400 μM ApG primer in a buffer containing 40 mM Tris-HCl (pH 7.0), 20 mM NaCl, 5 mM MgCl2, 2 mM DTT, and 0.2 U/μL RNasin at 37°C. The reaction was initiated by adding a mixture of 25 μM CTP, 25 μM UTP, 25 μCi of α-^33P-UTP, and various concentrations of GTP or analogs. Reactions proceeded for 35 minutes and were quenched with equal volumes of loading dye containing 90% formamide, 100 mM EDTA, 0.1% (w/v) amount of bromphenol blue and xylene cyanol. The products were separated by 25% PAGE, visualized, and quantified by autoradiography as described above. Data were fit with Eq I, where %Max and %Min are respectively the ratios of (10+11+12+13+14-mer)/ (9+10+11+12+13+14-mer) at the highest nucleotide concentration and the baseline level of mis-incorporation of CTP/UTP in the absence of the correct nucleotide (GTP) encoded by the template sequence, Kapp is the concentration at which half of the reactant (9-mer) is converted to products (10+11+12+13+14-mers), and S is the concentration of nucleotide analog.
Y=(%Max−%Min)⋅S/Kapp+S+%Min (I)

[6] = target: T1, recombinant influenza RdRp (PA/PB1/PB2 heterotrimer); set-up: method as in PMID 23874596; details: cited from earlier work
[7] = target: viral ribonucleoprotein complexes from detergent-disrupted Influenza A/PR/8/34 (Influenza A virus, UniProt P03431); experiment: Influenza polymerase inhibition (IC50) filter binding assay, ApG-primed RNA synthesis by cRNP; details: vs T-705-RTP
Chain of viral ribonucleoprotein complexes from detergent-disrupted Influenza A/PR/8/34 (P03431 whole entry, looked up, one chain of several): as the sequence (P03431 whole entry, looked up) above

[8] = Influenza A virus, MDCK, 120 h, read-out: EC50

Nc1nc2c(ncn2[C@@H]2O[C@H](CO)[C@@H](O)[C@H]2F)c(=O)[nH]1 [2’FdG, 2’-deoxy, 2’F guanosine]
EC50 ([1]; Influenza A virus, MDCK, 120 h): 18 µM
EC50 ([1]; read-out: EC50): 19 ± 5 µM
CC50 at 5 day [2]: > 200 µM

Nc1nc2c(ncn2[C@@H]2O[C@H](COP(=O)(O)OP(=O)(O)OP(=O)(O)O)[C@@H](O)[C@H]2F)c(=O)[nH]1 [2’FdGTP]
Mode of action on RNA synthesis [3]: stably incorporated into RNA
Incorporation / mode of action in cRNP reactions [4]: stable incorporation

N#CC1(COP(=O)(O)OP(=O)(O)OP(=O)(O)O)OC(n2cnc3c(=O)[nH]c(N)nc32)C(F)C1O (stereo not drawn) [4’CN-FdGTP]
Mode of action on RNA synthesis [3]: direct chain-termination

N#C[C@]1(CO)O[C@@H](n2cnc3c(=O)[nH]c(N)nc32)[C@H](F)[C@@H]1O [4’CN-FdG]
EC50 [1, 8]: > 200 µM
CC50 at 5 day [2]: > 200 µM

C=C[C@]1(COP(=O)(O)OP(=O)(O)OP(=O)(O)O)O[C@@H](n2cnc3c(=O)[nH]c(N)nc32)[C@H](F)[C@@H]1O [4’vinyl-FdGTP]
Kapp [5]: 29 µM
Kapp ([5]; listed as 4'vinyl-FdGTP): 29.1 µM
Selectivity factor, Kapp(analog):Kapp(GTP) [5]: 3096
Mode of action on RNA synthesis [3]: direct chain-termination

C=C[C@]1(CO)O[C@@H](n2cnc3c(=O)[nH]c(N)nc32)[C@H](F)[C@@H]1O [4’vinyl-FdG]
EC50 ([1]; Influenza A virus, MDCK, 120 h): 110 µM
EC50 ([1]; read-out: EC50): 116 ± 48 µM
CC50 at 5 day [2]: > 200 µM

Nc1nc2c(ncn2[C@@H]2O[C@H](COP(=O)(O)OP(=O)(O)OP(=O)(O)O)[C@@H](O)[C@H]2O)c(=O)[nH]1 [GTP]
Selectivity factor, Kapp(analog):Kapp(GTP) [5]: 1
Kapp, reported value [6]: 8 nM

NC(=O)c1nc(F)cn([C@@H]2O[C@H](COP(=O)(O)OP(=O)(O)OP(=O)(O)O)[C@@H](O)[C@H]2O)c1=O [T-705-RTP]
Mode of action on RNA synthesis [3]: delayed chain-termination
Incorporation / mode of action in cRNP reactions [4]: neither incorporation

NC(=O)c1nc(F)c[nH]c1=O [T-705]
EC50 ([1]; Influenza A virus, MDCK, 120 h): 2.2 µM
EC50 ([1]; read-out: EC50): 2.4 ± 1.1 µM
CC50 [2]: > 100 µM

NC(=O)c1nccn([C@@H]2O[C@H](COP(=O)(O)OP(=O)(O)OP(=O)(O)O)[C@@H](O)[C@H]2O)c1=O [T-1106-TP]
Fold less potent than T-705 in the antiviral assays ([1]; vs T-705, MDCK cells): 12
Times lower selectivity factor than the reported selectivity over T-705-TP ([5]; compared with reported selectivity): 6.3
Selectivity factor, Kapp(analog):Kapp(GTP) [5]: 3 and 2.9
Mode of action on RNA synthesis [3]: delayed chain termination
Incorporation / mode of action in cRNP reactions [4]: incorporation and chain termination
Fold more potent (lower enzymatic IC50) than T-705-RTP in the biochemical assay [7]: 3

NC(=O)c1nccn([C@@H]2O[C@H](CO)[C@@H](O)[C@H]2O)c1=O [T-1106]
EC50 [1, 8]: 27 ± 6 µM
CC50 at 5 day [2]: > 100 µM
